Values of other authors as cited in article PMC8894159, “Paltusotine, a novel oral once-daily nonpeptide SST2 receptor agonist, suppresses GH and IGF-1 in healthy volunteers” (Pituitary, 2022).

Legend:
[1] = system: IGF-1; design: method as in PMID 25664604; details: twice-daily oral preparation; patients previously controlled on depot preparations; cited from earlier work
[2] = design: method as in PMID 25260838; details: patients taking pasireotide; cited from earlier work

## octreotide
[1]
  patients maintaining IGF-1 control: 58%

## pasireotide
[2]
  patients with hyperglycemia/diabetes: approximately 57%
